# From paper PMC7615311 (Science (New York, N.Y.), 2023)
# How the values were obtained:
# ATR = ATR (Homo sapiens, UniProt Q13535); experiment: Kinobeads assay, ATR; type: binding
# HeLa cells [1] = experiment: decryptM protein acetylation profiling in HeLa cells; type: cell-based, human
# cortactin (CTTN) = experiment: decryptM, acetylation of HDAC6 substrate cortactin in HeLa cells; type: cell-based, human; settings: within the tested dose range
# [2] = tested on: K562 chronic myelogenous leukemia cells; experiment: decryptM phosphoproteome profiling in K562 cells; type: cell-based, human; settings: for number of regulated phosphopeptides: K562, 30 min drug treatment
# A549 lung cancer cells = experiment: decryptM phosphoproteome profiling in A549 cells; type: cell-based, human
# HeLa cells [3] = experiment: decryptM phosphoproteome profiling in HeLa cells; type: cell-based, human
# BT-474 cells = experiment: decryptM phosphoproteome profiling in BT-474 cells; type: cell-based, human
# SK-BR-3 cells = experiment: decryptM phosphoproteome profiling in SK-BR-3 cells; type: cell-based, human
# MDA-MB-175 cells = experiment: decryptM phosphoproteome profiling in MDA-MB-175 cells; type: cell-based, human
# SU-DHL-4 cells [4] = experiment: FACS analysis of cytotoxicity; type: cell-based, human; settings: SU-DHL-4, FACS
# [5] = tested on: SU-DHL-4 (B-cell lymphoma); experiment: viability assay, SU-DHL-4; type: cell-based, human
# [6] = tested on: Ramos (Burkitt's Lymphoma); experiment: viability assay, Ramos; type: cell-based, human
# [7] = tested on: ARH-77 plasma leukemia line; experiment: viability assay, ARH-77; type: cell-based, human
# SU-DHL-4 cells [8] = experiment: two-dimensional decryptM phosphoproteome analysis in SU-DHL-4; type: cell-based, human; settings: dose-response at eight time points between 0 min and 24 h
# Ramos cells = experiment: two-dimensional decryptM phosphoproteome analysis in Ramos; type: cell-based, human; settings: dose-response at eight time points between 0 min and 24 h
# ARH-77 cells = experiment: two-dimensional decryptM phosphoproteome analysis in ARH-77; type: cell-based, human; settings: dose-response at eight time points between 0 min and 24 h
# MKI67 = experiment: decryptM, phosphorylation of MKI67 in SU-DHL-4; type: cell-based, human
# SYK = experiment: decryptM, phosphorylation of SYK in SU-DHL-4; type: cell-based, human
# RFTN1 = experiment: decryptM, RFTN1 phosphorylation at S467 in SU-DHL-4; type: cell-based, human
# CBP and p300 = experiment: decryptM; type: cell-based, human; settings: read-out: EC50 of inhibition of (auto-)acetylation sites on CBP and p300; HeLa
# SNRNP40 = experiment: decryptM, acetylation of SNRNP40 in HeLa cells; type: cell-based, human; settings: read-out: EC50 of SNRNP40 acetylation site
# SU-DHL-4 cells [9] = type: cell-based, human; settings: SU-DHL-4, live cell imaging
# [10] = tested on: KYSE-520 esophageal squamous cell carcinoma cell line; experiment: decryptM phosphoproteome profiling in KYSE-520 cells; type: cell-based, human; settings: KYSE-520, 30 min
# BT-474 = experiment: growth reduction, BT-474; type: cell-based; settings: Homo sapiens, BT-474, read-out: reduced growth
# SK-BR-3 = experiment: growth reduction, SK-BR-3; type: cell-based; settings: Homo sapiens, SK-BR-3, read-out: reduced growth
# MDA-MB-175 = experiment: growth reduction, MDA-MB-175; type: cell-based; settings: Homo sapiens, read-out: reduced growth
# SHC1 = experiment: decryptM, pY427 on SHC1 in SK-BR-3 cells; type: cell-based; settings: Homo sapiens, SK-BR-3, read-out: potency of inhibition of pY427 on SHC1
# AKT1S1 = experiment: decryptM, pT246 on AKT1S1 in SK-BR-3 cells; type: cell-based; settings: Homo sapiens, SK-BR-3, read-out: potency of inhibition of pT246 on AKT1S1
# ATR, sequence (Q13535 whole entry): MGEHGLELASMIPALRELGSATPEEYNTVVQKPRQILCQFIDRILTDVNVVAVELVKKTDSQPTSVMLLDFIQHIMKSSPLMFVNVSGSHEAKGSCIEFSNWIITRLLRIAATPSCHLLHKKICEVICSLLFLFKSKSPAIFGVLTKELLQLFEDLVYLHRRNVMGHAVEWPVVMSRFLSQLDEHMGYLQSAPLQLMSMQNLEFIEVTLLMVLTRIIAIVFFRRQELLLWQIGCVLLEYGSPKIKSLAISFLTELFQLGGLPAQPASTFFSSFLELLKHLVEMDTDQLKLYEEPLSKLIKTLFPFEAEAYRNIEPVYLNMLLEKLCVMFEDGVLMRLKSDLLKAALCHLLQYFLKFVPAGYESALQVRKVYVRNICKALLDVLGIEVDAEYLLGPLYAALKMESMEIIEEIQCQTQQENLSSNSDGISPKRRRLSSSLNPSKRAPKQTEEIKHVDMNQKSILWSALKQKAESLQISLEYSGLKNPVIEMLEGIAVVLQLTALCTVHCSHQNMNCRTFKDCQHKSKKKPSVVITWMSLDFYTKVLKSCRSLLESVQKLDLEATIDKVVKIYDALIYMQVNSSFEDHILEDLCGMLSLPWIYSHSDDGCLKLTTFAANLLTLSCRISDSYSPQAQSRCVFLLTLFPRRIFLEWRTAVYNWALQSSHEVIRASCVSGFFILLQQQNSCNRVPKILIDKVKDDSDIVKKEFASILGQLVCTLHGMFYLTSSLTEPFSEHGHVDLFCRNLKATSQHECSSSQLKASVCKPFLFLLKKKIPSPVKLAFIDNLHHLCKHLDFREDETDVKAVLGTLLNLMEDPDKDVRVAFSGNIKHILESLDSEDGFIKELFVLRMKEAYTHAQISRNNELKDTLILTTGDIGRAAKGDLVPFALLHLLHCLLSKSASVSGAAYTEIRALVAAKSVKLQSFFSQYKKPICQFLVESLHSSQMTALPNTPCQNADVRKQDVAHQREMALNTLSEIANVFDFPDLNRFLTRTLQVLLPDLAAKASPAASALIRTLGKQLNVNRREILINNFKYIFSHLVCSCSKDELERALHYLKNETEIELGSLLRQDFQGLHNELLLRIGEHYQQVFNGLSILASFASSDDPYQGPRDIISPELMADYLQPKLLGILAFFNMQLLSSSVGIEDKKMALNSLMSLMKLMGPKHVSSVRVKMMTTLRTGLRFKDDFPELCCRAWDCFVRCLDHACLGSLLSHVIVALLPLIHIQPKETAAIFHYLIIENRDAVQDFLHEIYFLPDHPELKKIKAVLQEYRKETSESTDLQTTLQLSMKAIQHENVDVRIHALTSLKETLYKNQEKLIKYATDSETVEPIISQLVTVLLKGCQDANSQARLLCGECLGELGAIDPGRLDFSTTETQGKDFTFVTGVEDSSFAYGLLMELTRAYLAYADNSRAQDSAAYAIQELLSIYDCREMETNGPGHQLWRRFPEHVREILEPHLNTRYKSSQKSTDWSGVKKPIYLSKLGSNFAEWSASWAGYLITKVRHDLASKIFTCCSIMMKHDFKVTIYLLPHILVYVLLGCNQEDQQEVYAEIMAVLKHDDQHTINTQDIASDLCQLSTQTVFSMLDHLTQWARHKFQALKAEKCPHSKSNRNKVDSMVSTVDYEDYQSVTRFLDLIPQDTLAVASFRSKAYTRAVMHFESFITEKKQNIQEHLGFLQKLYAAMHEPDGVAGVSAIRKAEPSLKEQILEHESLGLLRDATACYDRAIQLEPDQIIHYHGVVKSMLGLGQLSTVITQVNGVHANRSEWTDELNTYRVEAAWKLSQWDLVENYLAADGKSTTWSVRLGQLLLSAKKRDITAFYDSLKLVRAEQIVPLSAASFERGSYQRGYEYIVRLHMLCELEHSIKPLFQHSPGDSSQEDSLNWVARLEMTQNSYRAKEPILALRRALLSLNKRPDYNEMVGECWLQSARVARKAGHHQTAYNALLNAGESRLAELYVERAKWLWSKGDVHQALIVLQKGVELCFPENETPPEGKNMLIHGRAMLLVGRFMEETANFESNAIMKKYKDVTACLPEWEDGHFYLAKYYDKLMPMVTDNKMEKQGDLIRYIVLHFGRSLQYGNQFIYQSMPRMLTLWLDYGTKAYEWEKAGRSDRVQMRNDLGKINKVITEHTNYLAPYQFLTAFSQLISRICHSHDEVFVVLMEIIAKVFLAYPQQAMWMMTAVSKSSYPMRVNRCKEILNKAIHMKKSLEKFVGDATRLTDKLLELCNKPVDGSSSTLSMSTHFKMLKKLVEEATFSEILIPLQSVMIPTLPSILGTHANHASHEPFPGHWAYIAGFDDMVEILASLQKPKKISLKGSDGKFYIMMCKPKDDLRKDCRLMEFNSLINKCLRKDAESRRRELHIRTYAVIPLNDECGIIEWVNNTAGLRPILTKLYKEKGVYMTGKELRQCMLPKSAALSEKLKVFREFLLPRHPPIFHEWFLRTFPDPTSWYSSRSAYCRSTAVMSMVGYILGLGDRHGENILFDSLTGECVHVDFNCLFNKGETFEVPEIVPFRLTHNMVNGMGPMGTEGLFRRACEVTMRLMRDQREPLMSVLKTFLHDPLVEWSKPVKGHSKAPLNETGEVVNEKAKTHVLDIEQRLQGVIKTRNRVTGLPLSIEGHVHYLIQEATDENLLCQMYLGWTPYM
compound,measurement,setting,value
Cn1c(=O)n(-c2ccc(C(C)(C)C#N)cc2)c2c3cc(-c4cnc5ccccc5c4)ccc3ncc21 [Dactolisib],Kd,ATR,91 nM
C#Cc1cccc(Nc2ncnc3cc(OC)c(OCCCCCCC(=O)NO)cc23)c1 [CUDC-101],higher affinity for HDAC targets than for kinase targets in cells,HeLa cells [1]; acetylated vs phosphorylated peptides,100 fold
same,number of upregulated acetylated peptides,"HeLa cells [1]; of the 1,133 measured acetylated peptides",139
same,effect on CTTN acetylation,cortactin (CTTN),only at substantially higher concentrations
CC(=O)O[C@H]1C(=O)[C@@]2(C)[C@H]([C@H](OC(=O)c3ccccc3)[C@]3(O)C[C@H](OC(=O)[C@H](O)[C@@H](NC(=O)c4ccccc4)c4ccccc4)C(C)=C1C3(C)C)[C@]1(OC(C)=O)CO[C@@H]1C[C@@H]2O [paclitaxel],number of regulated phosphopeptides,[2],7
CN[C@@H]1C[C@H]2O[C@@](C)([C@@H]1OC)n1c3ccccc3c3c4c(c5c6ccccc6n2c5c31)C(=O)NC4 [staurosporine],number of regulated phosphopeptides,A549 lung cancer cells,~2500
O=C(CCCCCCC(=O)Nc1ccccc1)NO [vorinostat],effect on protein phosphorylation,HeLa cells [3]; within 4 hours,no noticeable effect
Nc1ccn([C@@H]2O[C@H](CO)[C@@H](O)[C@@H]2O)c(=O)n1 [cytarabine],EC50,"[2]; Homo sapiens, K562, 0.5 h, read-out: EC50 of potently regulated phosphopeptides",< 100 nM
same,number of regulated phosphopeptides,[2],23
pertuzumab: breast cancer therapeutic antibody blocking signaling by preventing HER2-HER3 dimerization,number of regulated phosphopeptides,BT-474 cells,~ 150
same,number of regulated phosphopeptides,SK-BR-3 cells,~ 30
same,number of regulated phosphopeptides,MDA-MB-175 cells,~ 150
Cn1cnc2c(F)c(Nc3ccc(Br)cc3Cl)c(C(=O)NOCCO)cc21 [selumetinib],ERK phosphorylation,A549 lung cancer cells,abrogated ERK phosphorylation
same,phosphorylation of the AKT substrate BAD at S99,A549 lung cancer cells,induced phosphorylation
O=C1/C(=C/c2ccccc2)C(NC2CCCCC2)c2ccccc21 (stereo not shown) [BCI],cell killing by the drug alone,SU-DHL-4 cells [4],effective in killing cells
C/C=C1\NC(=O)[C@H]2CSSCC/C=C/[C@H](CC(=O)N[C@H](C(C)C)C(=O)N2)OC(=O)[C@H](C(C)C)NC1=O [romidepsin],response of the phosphoproteome,HeLa cells [3]; after 16 hours,broad and potent response
same,effect on CTTN acetylation,cortactin (CTTN),no effect
RTX: antibody for treatment of B-cell malignancies targeting MS4A1 (CD20),sensitivity in viability assay,[5],sensitive
same,sensitivity in viability assay,[6],sensitive
same,sensitivity in viability assay,[7],insensitive
same,phosphoproteome response,SU-DHL-4 cells [8],massive responses
same,phosphoproteome response,Ramos cells,massive responses
same,phosphoproteome response,ARH-77 cells,silent
same,downregulation of phosphorylation on the proliferation marker MKI67,MKI67,> 10 x
same,upregulation of phosphorylation of SYK,SYK,> 10 fold
same,increase of RFTN1 phosphorylation at S467,"RFTN1; SU-DHL-4, within 2 min",10 fold
same,increase of RFTN1 phosphorylation at S467,"RFTN1; SU-DHL-4, within 5 min",30 fold
CNC(=O)Nc1ccc2c(c1)CC[C@@]21OC(=O)N(CC(=O)N(Cc2ccc(F)cc2)[C@@H](C)C(F)(F)F)C1=O [A485],number of downregulated acetylated peptides,HeLa cells [1],59
same,impact on the phosphoproteome,HeLa cells [3],did not have much impact
same,EC50,CBP and p300,50 to 200 nM
same,EC50,SNRNP40,50 nM
CC(=O)Nc1cccc(-n2c(=O)n(C3CC3)c(=O)c3c(Nc4ccc(I)cc4F)n(C)c(=O)c(C)c32)c1 [trametinib],effect of inhibitor pre-treatment on RTX-mediated cytotoxicity,SU-DHL-4 cells [9],clear reduction of RTX-mediated cytotoxicity
NC1(c2ccc(-c3nc4ccn5c(=O)[nH]nc5c4cc3-c3ccccc3)cc2)CCC1 [MK-2206],ERK1 activity via phosphorylation at Y187,A549 lung cancer cells,induced ERK1 activity
same,phosphorylation of the AKT substrates AKT1S1 (T2469) and GSK3B (S9),A549 lung cancer cells,reduced phosphorylation
COc1cc(Nc2ncc(F)c(Nc3ccc4c(n3)N(COP(=O)(O)O)C(=O)C(C)(C)O4)n2)cc(OC)c1OC [fostamatinib],effect of inhibitor pre-treatment on RTX-mediated cytotoxicity,SU-DHL-4 cells [9],clear reduction of RTX-mediated cytotoxicity
same,effect of combination on cytotoxic effect of RTX,SU-DHL-4 cells [4],diminished the cytotoxic effect of RTX
CC1(N)CCN(c2cnc(-c3cccc(Cl)c3Cl)c(N)n2)CC1 [SHP099],phosphorylation of the EGFR substrate GAB1,[10],diminished in a dose-dependent fashion
same,phosphorylation sites indicating EGFR activity,[10],does not inhibit
CS(=O)(=O)CCNCc1ccc(-c2ccc3ncnc(Nc4ccc(OCc5cccc(F)c5)c(Cl)c4)c3c2)o1 [Lapatinib],EC50,BT-474,158 nM
same,EC50,SK-BR-3,234 nM
same,EC50,MDA-MB-175,695 nM
same,number of regulated phosphopeptides,BT-474 cells,hundreds
same,number of regulated phosphopeptides,SK-BR-3 cells,five
same,number of regulated phosphopeptides,MDA-MB-175 cells,hundreds
same,EC50,SHC1,18 nM
same,EC50,AKT1S1,11 nM
